Structures can show the parent of a compound that is named as a salt.
Tests used:
HDAC 6 = target: T1, HDAC 6 (Homo sapiens, UniProt Q9UBN7); test: Test of HDAC activities, HDAC6 (fluorimetric); assay type: biochemical; set-up: purchased Calbiochem 382180; details: samples at 0.1, 1, 10, 100, 1000 nM; 37° C. 60 minutes; fluorescence Ex 390, Em 460; read-out: HDAC inhibitory activities, HDAC6
T1 sequence (Q9UBN7 1-1215): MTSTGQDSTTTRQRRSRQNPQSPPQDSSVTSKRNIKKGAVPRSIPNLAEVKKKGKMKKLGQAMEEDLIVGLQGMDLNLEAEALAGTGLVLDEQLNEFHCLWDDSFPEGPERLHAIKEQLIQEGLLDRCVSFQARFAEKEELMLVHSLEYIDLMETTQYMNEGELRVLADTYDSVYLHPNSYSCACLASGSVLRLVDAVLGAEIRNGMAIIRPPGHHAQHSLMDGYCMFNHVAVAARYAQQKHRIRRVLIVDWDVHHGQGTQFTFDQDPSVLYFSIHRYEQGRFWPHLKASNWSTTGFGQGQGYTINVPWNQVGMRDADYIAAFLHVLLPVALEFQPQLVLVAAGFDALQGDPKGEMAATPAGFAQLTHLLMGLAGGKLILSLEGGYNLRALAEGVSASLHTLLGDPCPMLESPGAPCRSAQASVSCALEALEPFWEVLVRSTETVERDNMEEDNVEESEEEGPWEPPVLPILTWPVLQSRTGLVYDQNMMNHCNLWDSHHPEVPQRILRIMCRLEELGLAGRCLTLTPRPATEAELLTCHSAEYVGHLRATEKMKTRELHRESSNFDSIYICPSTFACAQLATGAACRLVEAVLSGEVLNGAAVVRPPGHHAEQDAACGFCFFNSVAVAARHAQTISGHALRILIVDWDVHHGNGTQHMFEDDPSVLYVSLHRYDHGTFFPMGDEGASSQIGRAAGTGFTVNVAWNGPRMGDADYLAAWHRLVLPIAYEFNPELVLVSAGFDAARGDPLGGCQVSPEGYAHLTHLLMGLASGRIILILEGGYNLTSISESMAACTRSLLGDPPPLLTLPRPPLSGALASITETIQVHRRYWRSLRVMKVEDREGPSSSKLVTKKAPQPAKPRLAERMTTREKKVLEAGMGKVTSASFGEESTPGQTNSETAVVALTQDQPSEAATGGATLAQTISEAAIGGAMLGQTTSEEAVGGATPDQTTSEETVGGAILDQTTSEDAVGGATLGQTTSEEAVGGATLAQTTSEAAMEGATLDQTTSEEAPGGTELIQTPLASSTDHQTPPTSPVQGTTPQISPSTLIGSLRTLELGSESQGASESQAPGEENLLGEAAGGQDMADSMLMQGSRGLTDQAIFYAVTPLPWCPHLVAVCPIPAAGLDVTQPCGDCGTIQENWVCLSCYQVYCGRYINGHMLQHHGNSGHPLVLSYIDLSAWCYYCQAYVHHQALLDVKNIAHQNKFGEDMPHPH
Outline: (§1)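 HDAC1 tested at 100, 1000 and 10000 nM; recombinant human HDAC6 at 0.1, 1, 10, 100 and 1000 nM. Reaction 60 min at 37° C, then developer for 30 min at 37° C; fluorescence read at Ex 390/Em 460.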

HDAC1 = HDAC1 (Homo sapiens, UniProt Q13547); test: Test of HDAC activities, HDAC1 Fluorimetric Drug Discovery Assay Kit; assay type: biochemical; set-up: purchased Enzolifesciences BML-AK511; details: samples at 100, 1000, 10000 nM; 37° C. 60 minutes; fluorescence Ex 390, Em 460; read-out: HDAC inhibitory activities, HDAC1
Chain of HDAC1 (Q13547 whole entry): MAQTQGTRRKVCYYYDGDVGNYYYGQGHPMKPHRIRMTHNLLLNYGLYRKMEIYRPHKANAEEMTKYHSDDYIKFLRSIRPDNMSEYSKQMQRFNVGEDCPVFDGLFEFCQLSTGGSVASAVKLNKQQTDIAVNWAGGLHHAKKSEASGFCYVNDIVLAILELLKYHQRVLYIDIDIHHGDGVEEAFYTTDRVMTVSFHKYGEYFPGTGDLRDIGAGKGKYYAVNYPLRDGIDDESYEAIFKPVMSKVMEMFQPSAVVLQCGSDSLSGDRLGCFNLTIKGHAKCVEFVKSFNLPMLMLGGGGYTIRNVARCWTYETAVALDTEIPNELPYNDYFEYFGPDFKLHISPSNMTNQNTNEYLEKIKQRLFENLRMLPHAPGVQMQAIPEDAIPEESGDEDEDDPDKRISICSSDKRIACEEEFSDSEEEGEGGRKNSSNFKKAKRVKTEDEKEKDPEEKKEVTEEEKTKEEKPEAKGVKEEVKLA
Outline: as §1

SMILES	IC50 (HDAC 6)	IC50 (HDAC1)
COc1ccccc1N1CCN(C(=O)N(Cc2ccc(C(=O)NO)cc2)c2ccc(F)c(Cl)c2)CC1 [Compound 481, N-(3-chloro-4-fluorophenyl)-N-(4-(hydroxycarbamoyl)benzyl)-4-(2-methoxyphenyl)piperazine-1-carboxamide]	0.015 µM	2.08 µM
O=C(NO)c1ccc(CN(C(=O)N2CCN(c3ccc(F)cc3)CC2)c2ccc(F)c(Cl)c2)cc1 [Compound 482, N-(3-chloro-4-fluorophenyl)-4-(4-fluorophenyl)-N-(4-(hydroxycarbamoyl)benzyl)piperazine-1-carboxamide]	0.001 µM	0.68 µM
O=C(NO)c1ccc(CN(C(=O)N2CCOCC2)c2cccc(C3CCOCC3)c2)cc1 [Compound 483, N-(4-(hydroxycarbamoyl)benzyl)-N-(3-(tetrahydro-2H-pyran-4-yl)phenyl)morpholine-4-carboxamide]	0.007 µM	0.84 µM
COc1cccc(N(Cc2ccc(C(=O)NO)cc2)C(=O)N2CCOCC2)c1 [Compound 484, N-(4-(hydroxycarbamoyl)benzyl)-N-(3-methyoxyphenyl)morpholine-4-carboxamide]	0.002 µM	0.68 µM
O=C(NO)c1ccc(CN(C(=O)N2CC(F)(F)C2)c2ccc(C(F)(F)F)cc2)cc1 [Compound 485, 3,3-difluoro-N-(4-(hydroxycarbamoyl)benzyl)-N-(4-(trifluoromethyl)phenyl)azetidine-1-carboxamide]	0.008 µM	0.86 µM
O=C(NO)c1ccc(CN(C(=O)N2CCOCC2)c2cccc(Br)c2)c(F)c1 [Compound 487, N-(3-bromophenyl)-N-(2-fluoro-4-(hydroxycarbamoyl)benzyl)morpholine-4-carboxamide]	0.007 µM	0.178 µM
CC(C)(C)OC(=O)N1CCC(c2cccc(N(Cc3ccc(C(=O)NO)cc3)C(=O)N3CCOCC3)c2)CC1 [Compound 489, tert-butyl 4-(3-(N-(4-(hydroxycarbamoyl)benzyl)morpholine-4-carboxamido)phenyl)piperidine-1-carboxylate]	0.0005 µM	1.22 µM
CC(=O)N1CCC(c2cccc(N(Cc3ccc(C(=O)NO)cc3)C(=O)N3CCOCC3)c2)CC1 [Compound 490, N-(3-(1-acetylpiperidin-4-yl)phenyl)-N-(4-(hydroxycarbamoyl)benzyl)morpholine-4-carboxamide]	0.019 µM	0.703 µM
O=C(NO)c1ccc(CN(C(=O)N2CCOCC2)c2cccc(C3CCNCC3)c2)cc1 [Compound 493, N-(4-(hydroxycarbamoyl)benzyl)-N-(3-(piperidin-4-yl)phenyl)morpholine-4-carboxamide hydrochloride]	0.011 µM	0.883 µM
O=C(NO)c1ccc(CN(C(=O)N2CCC[C@@H]2CO)c2cccc(C(F)(F)F)c2)cc1 [Compound 497, (R)—N-(4-(hydroxycarbamoyl)benzyl)-2-(hydroxymethyl)-N-(3-(trifluoromethyl)phenyl)pyrrolidine-1-carboxamide]	0.002 µM	0.936 µM
O=C(NO)c1ccc(CN(C(=O)N2CCOCC2)c2cccc(CO)c2)cc1 [Compound 499, N-(4-(hydroxycarbamoyl)benzyl)-N-(3-(hydroxymethyl)phenyl)morpholine-4-carboxamide]	0.005 µM	3.63 µM
O=C(NO)c1ccc(CN(C(=O)N2CCOCC2)c2cccc(CF)c2)cc1 [Compound 500, N-(3-(fluoromethyl)phenyl)-N-(4-(hydroxycarbamoyl)benzyl)morpholine-4-carboxamide]	0.003 µM	1 µM
O=C(NO)c1ccc(CN(C(=O)N2CCOCC2)c2cccc(C3=CCOCC3)c2)c(F)c1 [Compound 512, N-(3-(3,6-dihydro-2H-pyran-4-yl)phenyl)-N-(2-fluoro-4-(hydroxycarbamoyl)benzyl)morpholine-4-carboxamide]	0.014 µM	1.45 µM
O=C(NO)c1ccc(CN(C(=O)N2CCC(O)CC2)c2cccc(-c3ccc4c(c3)OCO4)c2)c(F)c1 [Compound 513, N-(3-(benzo[d][1,3]dioxol-5-yl)phenyl)-N-(2-fluoro-4-(hydroxycarbamoyl)benzyl)-4-hydroxypiperidine-1-carboxamide]	0.015 µM	0.654 µM

The remaining lines, values ahead:

IC50 (HDAC 6)	IC50 (HDAC1)	SMILES
0.018 µM	1.07 µM	O=C(NO)c1ccc(CN(C(=O)N2CCN(Cc3ccccc3)CC2)c2ccc(F)c(Cl)c2)cc1 [Compound 480, 4-benzyl-N-(3-chloro-4-fluorophenyl)-N-(4-(hydroxycarbamoyl)benzyl)piperazine-1-carboxamide]
0.006 µM	1.45 µM	O=C(NO)c1ccc(CN(C(=O)N2CCC(O)(c3ccccc3)CC2)c2ccc(C(F)(F)F)cc2)cc1 [Compound 486, 4-hydroxy-N-(4-(hydroxycarbamoyl)benzyl)-4-phenyl-N-(4-(trifluoromethyl)phenyl)piperidine-1-carboxamide]
0.0005 µM	1.17 µM	O=C(NO)c1ccc(CN(C(=O)N2CCC(O)CC2)c2cccc(Br)c2)c(F)c1 [Compound 488, N-(3-bromophenyl)-N-(2-fluoro-4-(hydroxycarbamoyl)benzyl)-4-hydroxypiperidine-1-carboxamide]
0.009 µM	3.22 µM	CS(=O)(=O)N1CCC(c2cccc(N(Cc3ccc(C(=O)NO)cc3)C(=O)N3CCOCC3)c2)CC1 [Compound 491, N-(4-(hydroxycarbamoyl)benzyl)-N-(3-(1-(methylsulfonyl)piperidin-4-yl)phenyl)morpholine-4-carboxamide]
0.002 µM	1.26 µM	CC(C)NC(=O)N1CCC(c2cccc(N(Cc3ccc(C(=O)NO)cc3)C(=O)N3CCOCC3)c2)CC1 [Compound 492, N-(4-(hydroxycarbamoyl)benzyl)-N-(3-(1-(isopropylcarbamoyl)piperidin-4-yl)phenyl)morpholine-4-carboxamide]
0.001 µM	0.692 µM	CC(=O)N1CCN(C(=O)N(Cc2ccc(C(=O)NO)cc2)c2cccc(C(F)(F)F)c2)CC1 [Compound 494, 4-acetyl-N-(4-(hydroxycarbamoyl)benzyl)-N-(3-(trifluoromethyl)phenyl)piperazine-1-carboxamide]
0.011 µM	3.33 µM	O=C(NO)c1ccc(CN(C(=O)N2CC[C@@H](F)C2)c2cccc(C(F)(F)F)c2)cc1 [Compound 495, (R)-3-fluoro-N-(4-(hydroxycarbamoyl)benzyl)-N-(3-(trifluoromethyl)phenyl)pyrrolidine-1-carboxamide]
0.001 µM	1.12 µM	O=C(NO)c1ccc(CN(C(=O)N2CC[C@H](F)C2)c2cccc(C(F)(F)F)c2)cc1 [Compound 496, (S)-3-fluoro-N-(4-(hydroxycarbamoyl)benzyl)-N-(3-(trifluoromethyl)phenyl)pyrrolidine-1-carboxamide]
0.027 µM	4.71 µM	O=C(NO)c1ccc(CN(C(=O)N2CCC[C@H]2C(F)(F)F)c2cccc(C(F)(F)F)c2)cc1 [Compound 498, (S)—N-(4-(hydroxycarbamoyl)benzyl)-2-(trifluoromethyl)-N-(3-(trifluoromethyl)phenyl)pyrrolidine-1-carboxamide]
0.012 µM	0.636 µM	O=C(NO)c1ccc(CN(C(=O)N2CCOCC2)c2cccc(-c3ccc4c(c3)OCO4)c2)c(F)c1 [Compound 511, N-(3-(benzo[d][1,3]dioxol-5-yl)phenyl)-N-(2-fluoro-4-(hydroxycarbamoyl)benzyl)morpholine-4-carboxamide]
0.015 µM	1.24 µM	O=C(NO)c1ccc(CN(C(=O)N2CCC(O)CC2)c2cccc(C3=CCOCC3)c2)c(F)c1 [Compound 514, N-(3-(3,6-dihydro-2H-pyran-4-yl)phenyl)-N-(2-fluoro-4-(hydroxycarbamoyl)benzyl)-4-hydroxypiperidine-1-carboxamide]

Source: patent US9878986B2, “Compounds for selective histone deacetylase inhibitors, and pharmaceutical composition comprising the same” (CHONG KUN DANG PHARMACEUTICAL CORP., priority 2013, dated 2018)
